Experimental data: PubChem BioAssay AID1963435 (Molecular Pharmacology Branch, DTP, NCI, 2024)

System: PANC-1 complex spheroid growth, percent test/control
Test: Anticancer human tumor PANC-1 cell line growth inhibition [Asc];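 note: spheroids exposed to agents for 7 days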;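 for viability, T/C: percent viability relative to DMSO vehicle wells taken as 100%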
Conditions: for viability, T/C: stronger effect = lower value
In short: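 Stromal components (HUVEC and hMSC) are co-assembled with the cancer cells into multicellular spheroids. Drugs are then added singly or paired, at concentrations falling by half-log increments from a clinically achievable maximum, capped at 10 microM without known Cmax.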

[1] = curve of first compound, second compound 0.0316 µM
[2] = curve of first compound, second compound 0.1 µM
[3] = curve of first compound, second compound 0.316 µM
[4] = curve of first compound, second compound 1 µM
[5] = second compound 0.0316 µM, first compound 0.0316 µM
[6] = second compound 0.0316 µM, first compound 0.1 µM
[7] = second compound 0.0316 µM, first compound 0.316 µM
[8] = second compound 0.0316 µM, first compound 1 µM
[9] = second compound 0.1 µM, first compound 0.0316 µM
[10] = second compound 0.1 µM, first compound 0.1 µM
[11] = second compound 0.1 µM, first compound 0.316 µM
[12] = second compound 0.1 µM, first compound 1 µM
[13] = second compound 0.316 µM, first compound 0.0316 µM
[14] = second compound 0.316 µM, first compound 0.1 µM
[15] = second compound 0.316 µM, first compound 0.316 µM
[16] = second compound 0.316 µM, first compound 1 µM
[17] = second compound 1 µM, first compound 0.0316 µM
[18] = second compound 1 µM, first compound 0.1 µM
[19] = second compound 1 µM, first compound 0.316 µM
[20] = second compound 1 µM, first compound 1 µM

`O=C(c1cc(Cc2n[nH]c(=O)c3ccccc23)ccc1F)N1CCN(C(=O)C2CC2)CC1` + Cc1c(S(C)(=O)=O)c(-c2cc(F)cc(N3CCN(c4ccc(NS(=O)(=O)c5ccc(NC(CCN6CCC(C(=O)OCCCP(=O)(O)O)CC6)CSc6ccccc6)c(S(=O)(=O)C(F)(F)F)c5)cc4)CC3)c2)c(-c2ccc(Cl)cc2)n1C(C)C gave an IC50 [1] greater than 10 µM, an IC50 [2] greater than 10 µM and an IC50 [3] greater than 10 µM. It also gave an IC50 [4] greater than 10 µM, an IC50 (curve of first compound, second compound 3.16 µM) greater than 10 µM and an IC50 (curve of first compound, second compound 10 µM) greater than 10 µM. The viability, T/C [5] was 106%, the viability, T/C [6] was 104% and the viability, T/C [7] was 107%. It also gave a viability, T/C [8] of 107%, a viability, T/C (second compound 0.0316 µM, first compound 3.16 µM) of 99% and a viability, T/C (second compound 0.0316 µM, first compound 10 µM) of 93.7%. It also gave a viability, T/C [9] of 89%, a viability, T/C [10] of 107% and a viability, T/C [11] of 107%. It also gave a viability, T/C [12] of 103%, a viability, T/C (second compound 0.1 µM, first compound 3.16 µM) of 117% and a viability, T/C (second compound 0.1 µM, first compound 10 µM) of 95.5%. The viability, T/C [13] was 102%, the viability, T/C [14] was 103% and the viability, T/C [15] was 112%. For the same compound, the viability, T/C [16] was 112%, the viability, T/C (second compound 0.316 µM, first compound 3.16 µM) was 103% and the viability, T/C (second compound 0.316 µM, first compound 10 µM) was 86.1%. The viability, T/C [17] was 112%, the viability, T/C [18] was 101% and the viability, T/C [19] was 105%. The viability, T/C [20] was 111%, the viability, T/C (second compound 1 µM, first compound 3.16 µM) was 111% and the viability, T/C (second compound 1 µM, first compound 10 µM) was 86.9%. It also gave a viability, T/C (second compound 3.16 µM, first compound 0.0316 µM) of 103%, a viability, T/C (second compound 3.16 µM, first compound 0.1 µM) of 106% and a viability, T/C (second compound 3.16 µM, first compound 0.316 µM) of 106%. For the same compound, the viability, T/C (second compound 3.16 µM, first compound 1 µM) was 115%, the viability, T/C (second compound 3.16 µM, first compound 3.16 µM) was 119% and the viability, T/C (second compound 3.16 µM, first compound 10 µM) was 87.2%. The viability, T/C (second compound 10 µM, first compound 0.0316 µM) was 166%, the viability, T/C (second compound 10 µM, first compound 0.1 µM) was 178% and the viability, T/C (second compound 10 µM, first compound 0.316 µM) was 187%. For the same compound, the viability, T/C (second compound 10 µM, first compound 1 µM) was 202%, the viability, T/C (second compound 10 µM, first compound 3.16 µM) was 171% and the viability, T/C (second compound 10 µM, first compound 10 µM) was 88.9%.
In the case of `Cc1c(S(C)(=O)=O)c(-c2cc(F)cc(N3CCN(c4ccc(NS(=O)(=O)c5ccc(NC(CCN6CCC(C(=O)OCCCP(=O)(O)O)CC6)CSc6ccccc6)c(S(=O)(=O)C(F)(F)F)c5)cc4)CC3)c2)c(-c2ccc(Cl)cc2)n1C(C)C` (stereo not given), the viability, T/C (compound 0.0316 µM) is reported as 106% [middle of 7 runs], the viability, T/C (compound 0.1 µM) is reported as 108% [middle of 7 runs] and the viability, T/C (compound 3.16 µM) is reported as 109% [middle of 7 runs]. The IC50 (compound alone, run of 11/07/2022) was greater than 10 µM.
`C=CC(=O)N1CCN(c2nc(=O)n(-c3c(C)ccnc3C(C)C)c3nc(-c4c(O)cccc4F)c(F)cc23)C(C)C1` (stereo not given) + CCN1C(C(=O)NC23CCC(C(=O)O)(CC2)CC3)C(c2cccc(Cl)c2F)C2(C(=O)Nc3cc(Cl)ccc32)C12CCCCC2 gave an IC50 (curve of first compound, second compound 0.00949 µM) greater than 10 µM, an IC50 (curve of first compound, second compound 0.03 µM) greater than 10 µM and an IC50 (curve of first compound, second compound 0.0949 µM) greater than 10 µM. The IC50 (curve of first compound, second compound 0.3 µM) was greater than 10 µM, the IC50 (curve of first compound, second compound 0.949 µM) was greater than 10 µM and the IC50 (curve of first compound, second compound 3 µM) was greater than 10 µM. The viability, T/C (second compound 0.00949 µM, first compound 0.0316 µM) was 98.1%, the viability, T/C (second compound 0.00949 µM, first compound 0.1 µM) was 96.8% and the viability, T/C (second compound 0.00949 µM, first compound 0.316 µM) was 86%. For the same compound, the viability, T/C (second compound 0.00949 µM, first compound 1 µM) was 98.8%, the viability, T/C (second compound 0.00949 µM, first compound 3.16 µM) was 90.4% and the viability, T/C (second compound 0.00949 µM, first compound 10 µM) was 96%. For the same compound, the viability, T/C (second compound 0.03 µM, first compound 0.0316 µM) was 101%, the viability, T/C (second compound 0.03 µM, first compound 0.1 µM) was 92.5% and the viability, T/C (second compound 0.03 µM, first compound 0.316 µM) was 100%. It also gave a viability, T/C (second compound 0.03 µM, first compound 1 µM) of 103%, a viability, T/C (second compound 0.03 µM, first compound 3.16 µM) of 97.8% and a viability, T/C (second compound 0.03 µM, first compound 10 µM) of 77.5%. For the same compound, the viability, T/C (second compound 0.0949 µM, first compound 0.0316 µM) was 111%, the viability, T/C (second compound 0.0949 µM, first compound 0.1 µM) was 101% and the viability, T/C (second compound 0.0949 µM, first compound 0.316 µM) was 97.5%. The viability, T/C (second compound 0.0949 µM, first compound 1 µM) was 94%, the viability, T/C (second compound 0.0949 µM, first compound 3.16 µM) was 95.6% and the viability, T/C (second compound 0.0949 µM, first compound 10 µM) was 91.2%. The viability, T/C (second compound 0.3 µM, first compound 0.0316 µM) was 109%, the viability, T/C (second compound 0.3 µM, first compound 0.1 µM) was 95.3% and the viability, T/C (second compound 0.3 µM, first compound 0.316 µM) was 106%. For the same compound, the viability, T/C (second compound 0.3 µM, first compound 1 µM) was 110%, the viability, T/C (second compound 0.3 µM, first compound 3.16 µM) was 93.6% and the viability, T/C (second compound 0.3 µM, first compound 10 µM) was 93.2%. For the same compound, the viability, T/C (second compound 0.949 µM, first compound 0.0316 µM) was 116%, the viability, T/C (second compound 0.949 µM, first compound 0.1 µM) was 107% and the viability, T/C (second compound 0.949 µM, first compound 0.316 µM) was 96.4%. The viability, T/C (second compound 0.949 µM, first compound 1 µM) was 103%, the viability, T/C (second compound 0.949 µM, first compound 3.16 µM) was 94.7% and the viability, T/C (second compound 0.949 µM, first compound 10 µM) was 93.1%. The viability, T/C (second compound 3 µM, first compound 0.0316 µM) was 120%, the viability, T/C (second compound 3 µM, first compound 0.1 µM) was 115% and the viability, T/C (second compound 3 µM, first compound 0.316 µM) was 114%. It also gave a viability, T/C (second compound 3 µM, first compound 1 µM) of 121%, a viability, T/C (second compound 3 µM, first compound 3.16 µM) of 109% and a viability, T/C (second compound 3 µM, first compound 10 µM) of 102%.
Compound `COc1c(OCCCN2CCOCC2)ccc2c3n(c(=NC(=O)c4cnc(N)nc4)nc12)CCN3` + CNC(C)C(=O)NC1CN(S(=O)(=O)c2cccc(S(=O)(=O)N3CCC4CCC(C(=O)NC(c5ccccc5)c5ccccc5)N4C(=O)C(NC(=O)C(C)NC)C3)c2)CCC2CCC(C(=O)NC(c3ccccc3)c3ccccc3)N2C1=O has an IC50 (curve of first compound, second compound 0.00316 µM) of 0.289 µM, an IC50 (curve of first compound, second compound 0.01 µM) of 0.225 µM and an IC50 [1] of 0.199 µM. The IC50 [2] was 0.157 µM, the IC50 [3] was 0.159 µM and the IC50 [4] was 0.191 µM. The viability, T/C (second compound 0.00316 µM, first compound 0.00316 µM) was 107%, the viability, T/C (second compound 0.00316 µM, first compound 0.01 µM) was 92.4% and the viability, T/C (second compound 0.00316 µM, first compound 0.0316 µM) was 87.6%. It also gave a viability, T/C (second compound 0.00316 µM, first compound 0.1 µM) of 74.8%, a viability, T/C (second compound 0.00316 µM, first compound 0.316 µM) of 45.6% and a viability, T/C (second compound 0.00316 µM, first compound 1 µM) of 18.7%. The viability, T/C (second compound 0.01 µM, first compound 0.00316 µM) was 96.1%, the viability, T/C (second compound 0.01 µM, first compound 0.01 µM) was 95.5% and the viability, T/C (second compound 0.01 µM, first compound 0.0316 µM) was 94.2%. For the same compound, the viability, T/C (second compound 0.01 µM, first compound 0.1 µM) was 65.7%, the viability, T/C (second compound 0.01 µM, first compound 0.316 µM) was 44% and the viability, T/C (second compound 0.01 µM, first compound 1 µM) was 15.6%. For the same compound, the viability, T/C (second compound 0.0316 µM, first compound 0.00316 µM) was 95.2%, the viability, T/C (second compound 0.0316 µM, first compound 0.01 µM) was 99.1% and the viability, T/C [5] was 89.9%. For the same compound, the viability, T/C [6] was 62.8%, the viability, T/C [7] was 41.3% and the viability, T/C [8] was 13.2%. It also gave a viability, T/C (second compound 0.1 µM, first compound 0.00316 µM) of 103%, a viability, T/C (second compound 0.1 µM, first compound 0.01 µM) of 90.7% and a viability, T/C [9] of 82.1%. For the same compound, the viability, T/C [10] was 56.6%, the viability, T/C [11] was 36.8% and the viability, T/C [12] was 12.3%. It also gave a viability, T/C (second compound 0.316 µM, first compound 0.00316 µM) of 98.7%, a viability, T/C (second compound 0.316 µM, first compound 0.01 µM) of 91.7% and a viability, T/C [13] of 85.2%. For the same compound, the viability, T/C [14] was 56.9%, the viability, T/C [15] was 36.8% and the viability, T/C [16] was 14.6%. The viability, T/C (second compound 1 µM, first compound 0.00316 µM) was 86.9%, the viability, T/C (second compound 1 µM, first compound 0.01 µM) was 96.9% and the viability, T/C [17] was 83.1%. For the same compound, the viability, T/C [18] was 66.4%, the viability, T/C [19] was 37.4% and the viability, T/C [20] was 15.5%.
